Source: patent US20250100972A1, “COMPOUND, RUBBER BLEND CONTAINING THE COMPOUND, VEHICLE TIRE COMPRISING THE RUBBER BLEND IN AT LEAST ONE COMPONENT, PROCESS FOR PRODUCING THE COMPOUND, AND USE OF THE COMPOUND AS AN AGEING PROTECTANT AND/OR ANTIOZONANT AND/OR DYE” (Continental Reifen Deutschland GmbH, priority 2021, published 2025)

How the values were obtained:
[1] = Measurement of oxidation induction time (OIT) by DSC; format: physicochemical; settings: with liquid polyisoprene LIR-50, isothermal 180° C., switch from N2 to O2 atmosphere 50 mL/min, DSC peak; measuring accuracy ± 10 min
Description: The compound of formula II) was investigated under laboratory conditions for its potential protective effect as an aging stabilizer by measurement of the oxidation induction time.
To this end the compounds of formula II) and 6-PPD in each case together with a polymer (liquid synthetic polyisoprene (IR), LIR-50, Kuraray, weight average molecular weight distribution Mw=54 000 g/mol, glass transition temperature Tg=−63° C.) were heated at constant temperature (180° C.) until onset of oxidation (start temperature 35° C., heating to 170° C. at a heating rate of 20 K/min (kelvin per minute), heating to 180° C. at a heating rate of 1 K/min; purge gas: nitrogen (N2), volume flow 50 mL/min).
The specimen was isothermally maintained at 180° C. under an N2 atmosphere and the atmosphere was then switched to an O2 atmosphere (volume flow 50 mL/min).
Oxidation was determined via a peak using DSC (differential scanning calorimetry).
The time in minutes to oxidation was measured.

[2] = basic structure compared with aniline; cited from earlier work

CC(C)CC(C)Nc1ccc(Nc2ccccc2)cc1 (stereo not drawn) [6-PPD, N-(1,3-dimethylbutyl)-N′-phenyl-p-phenylenediamine]
Time to oxidation (oxidation induction time) [1]: 116 ± 10 min

acridinone
Genotoxicity / mutagenicity according to safety data sheet [2]: neither genotoxic nor mutagenic

CC(C)CC(C)Nc1ccc2[nH]c3ccccc3c(=O)c2c1 (stereo not drawn) [Compound of formula II), 2-(1,3-dimethylbutylamino)-acridine-9(10H)-one]
Time to oxidation (oxidation induction time) [1]: 259 ± 10 min
